Experimental data: US12319695B2, “Sulfonamide derivative with fused pyrimidine skeleton, having epidermal growth factor receptor mutation inhibitory effect” (HANMI PHARM. CO., LTD., priority 2018, dated 2025)

What was measured:
[1] = tested on: PC9 EGFR del19/T790M/C797S cells; assay: PC9 EGFR del19/T790M/C797S cell growth inhibition test (CellTiter-Glo, 72 hours); assay type: cell-based; settings: Homo sapiens, PC-9, PC9 cell line overexpressing EGFR del19/T790M/C797S
Protocol: For cell growth conditions, an RPMI Medium 1640 (1×) containing 10% FBS and 1% penicillin/straptomycin (Gibco BRL) was used.
Specifically, the cell line stored in a liquid nitrogen tank was taken out, rapidly dissolved at 37° C., and thereafter centrifuged to remove the cryopreservation medium. The recovered cell pellets were well mixed in a culture medium, put into a culture flask, and passaged under conditions of 37° C. and 5% carbon dioxide to stabilize the cells to logarithmic cell growth phase. Thereafter, cells were taken from the flask, centrifuged to remove the culture medium, washed with Dulbecco's phosphate buffered saline (DPBS), and then centrifuged again to remove DPBS, and then diluted with a culture medium to have 1×10^5 cells/ml. The diluted cells were dispensed into a 96-well plate at 100 μl per well. The compounds prepared in the above examples were each dissolved in 99.5% dimethylsulfoxide (hereinafter, DMSO, cell culture grade) to a concentration of 10 mM. The DMSO solution containing each compound was diluted with a culture medium to a concentration of 30 μM, and then tenfold serial dilution was used to prepare a solution diluted upto 0.3 nM (in order to reach a final DMSO concentration of 1% or less).
The cells treated with the test solution were cultured under conditions of 37° C. and 5% carbon dioxide for 72 hours. After the 96-well plate in which the cells were cultured was acclimated to room temperature for 30 minutes, CellTiter-Glo® Luminescent Cell Assay Reagent (CTG, Promega) was dispensed at 50 μl per well. After stabilizing luminescence signals for 10 minutes, the luminescence intensity was measured with a microplate reader.
Based on the measured value, a […] value of each compound, which is the concentration at which cell growth is inhibited by 50%, was calculated with respect to 100% of the value obtained by subtracting the initial cell density value of a well not treated with a test material from the final cell density value thereof. The GI50 value of each compound was calculated using nonlinear regression of GraphPad Prism; log[inhibitor] vs. normalized response analysis.

[2] = tested on: Ba/F3 EGFR del19/T790M/C797S cells; assay: Ba/F3 EGFR del19/T790M/C797S cell growth inhibition test (CellTiter-Glo, 72 hours); assay type: cell-based; settings: Ba/F3 cell line overexpressing EGFR del19/T790M/C797S, 72 hours, CellTiter-Glo; read-out: Ba/F3 EGFR del19/T790M/C797S cells, GI50;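 further: compounds tested in tenfold steps from 10 µM down to 0.1 nM, with luminescence read on a microplate reader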
Protocol: Specifically, the cell line stored in a liquid nitrogen tank was taken out, rapidly dissolved at 37° C., and thereafter centrifuged to remove the cryopreservation medium. The recovered cell pellets were well mixed in a culture medium, put into a culture flask, and passaged under conditions of 37° C. and 5% carbon dioxide to stabilize the cells to the logarithmic growth phase. Thereafter, cells were taken from the flask, centrifuged to remove the culture medium, washed with Dulbecco's phosphate buffered saline (DPBS), and then centrifuged again to remove DPBS, and then diluted with a culture medium to have 1×10^5 cells/ml. The diluted cells were dispensed into a 96-well plate at 100 μl per well. […] The DMSO solution containing each compound was diluted with a culture medium to a concentration of 30 μM, and then tenfold serial dilution was used to prepare a solution diluted upto 0.3 nM (in order to reach a final DMSO concentration of 1% or less).
50 μl of a test solution of each compound was added each time to the 96-well plate in which the cells were dispensed, thus reaching a final concentration of 10 μM to 0.1 nM in 150 μl per well. The cells treated with the test solution were cultured under conditions of 37° C. and 5% carbon dioxide for 72 hours. After the 96-well plate in which the cells were cultured was acclimated to room temperature for 30 minutes, CellTiter-Glo® Luminescent Cell Assay Reagent (CTG, Promega) was dispensed at 50 μl per well. After stabilizing luminescence signals for 10 minutes, the luminescence intensity was measured with a microplate reader.

| GI50 [1] [nM] | GI50 [2] [nM] | Structure (SMILES) |
| --- | --- | --- |
| 369 |  | CCN1CCN(c2c(F)cc(Nc3nc(Nc4ccccc4N(C)S(C)(=O)=O)c4cc[nH]c4n3)cc2F)CC1 [Example 26, N-(2-((2-((4-(4-ethylpiperazin-1-yl)-3,5-difluorophenyl)amino)-7H-pyrrolo[2,3-d]pyrimidine-4-yl)amino)phenyl)-N-methylmethanesulfonamide] |
| 538 |  | CCCN1CCN(c2ccc(Nc3nc(Nc4ccccc4N(C)S(C)(=O)=O)c4cc[nH]c4n3)cc2F)CC1 [Example 10, N-(2-((2-((3-fluoro-4-(4-propylpiperazin-1-yl)phenyl)amino)-7H-pyrrolo[2,3-d]pyrimidine-4-yl)amino)phenyl)-N-methylmethanesulfonamide] |
| 641 |  | CN(c1ccccc1Nc1nc(Nc2ccc(N3CCN(C4CC4)CC3)c(F)c2)nc2[nH]ccc12)S(C)(=O)=O [Example 11, N-(2-((2-((3-fluoro-4-(4-cyclopropylpiperazin-1-yl)phenyl)amino)-7H-pyrrolo[2,3-d]pyrimidine-4-yl)amino)phenyl)-N-methylmethanesulfonamide] |
|  | 10 | CN1CCC2(CC1)CCN(c1ccc(Nc3nc(Nc4ccccc4N(C)S(C)(=O)=O)c4cc[nH]c4n3)cc1F)CC2 [Example 31, N-(2-((2-((3-fluoro-4-(9-methyl-3,9-diazaspiro[5.5]undecan-3-yl)phenyl)amino)-7H-pyrrolo[2,3-d]pyrimidine-4-yl)amino)phenyl)-N-methylmethanesulfonamide] |
|  | 46 | CN1CCN(c2ccc(Nc3nc(Nc4ccccc4N(C)S(C)(=O)=O)c4c(C#N)c[nH]c4n3)cc2F)CC1 [Example 61, N-(2-((5-cyano-2-((3-fluoro-4-(4-methylpiperazin-1-yl)phenyl)amino)-7H-pyrrolo[2,3-d]pyrimidine-4-yl)amino)phenyl)-N-methylmethanesulfonamide] |
|  | 185 | CN1CCC2(CC1)CCN(c1ccc(Nc3nc(Nc4ccccc4N(C)S(C)(=O)=O)c4cc[nH]c4n3)cc1F)C2 [Example 35, N-(2-((2-((3-fluoro-4-(8-methyl-2,8-diazaspiro[4.5]decan-2-yl)phenyl)amino)-7H-pyrrolo[2,3-d]pyrimidine-4-yl)amino)phenyl)-N-methylmethanesulfonamide] |
|  | 3.1 | CN1CCN(c2ccc(Nc3nc(Nc4ccccc4N(C)S(C)(=O)=O)c4cc[nH]c4n3)cc2)CC1 [Example 1, N-methyl-N-(2-((2-((4-(4-methylpiperazin-1-yl)phenyl)amino)-7H-pyrrolo[2,3-d]pyrimidine-4-yl)amino)phenyl)methanesulfonamide] |
|  | 72 | CC(C)N(c1ccccc1Nc1nc(Nc2ccc(N3CCN(C)CC3)c(F)c2)nc2[nH]ccc12)S(C)(=O)=O [Example 44, N-(2-((2-((3-fluoro-4-(4-methylpiperazin-1-yl)phenyl)amino)-7H-pyrrolo[2,3-d]pyrimidine-4-yl)amino)phenyl)-N-isopropylmethanesulfonamide] |
|  | 371 | CN(c1ccccc1Nc1nc(Nc2ccc(N3CCCCC3)c(F)c2)nc2[nH]ccc12)S(C)(=O)=O [Example 22, N-(2-((2-((4-(piperidin-1-yl)-3-fluorophenyl)amino)-7H-pyrrolo[2,3-d]pyrimidine-4-yl)amino)phenyl)-N-methylmethanesulfonamide] |
|  | 254 | CN1CCN(c2ccc(Nc3nc(Nc4ccccc4N(C)S(C)(=O)=O)c4cn[nH]c4n3)cc2F)CC1 [Example 67, N-(2-((6-((3-fluoro-4-(4-methylpiperazin-1-yl)phenyl)amino)-1H-pyrazolo[3,4-d]pyrimidine-4-yl)amino)phenyl)-N-methylmethanesulfonamide] |
|  | 47 | CN1CCC(Nc2ccc(Nc3nc(Nc4ccccc4N(C)S(C)(=O)=O)c4cc[nH]c4n3)cc2F)CC1 [Example 24, N-(2-((2-((3-fluoro-4-((1-methylpiperidin-4-yl)amino)phenyl)amino)-7H-pyrrolo[2,3-d]pyrimidine-4-yl)amino)phenyl)-N-methylmethanesulfonamide] |
|  | 73 | CN(c1ccccc1Nc1nc(Nc2ccc(N3CCC(N4CCOCC4)CC3)c(F)c2)nc2[nH]ccc12)S(C)(=O)=O [Example 18, N-(2-((2-((3-fluoro-4-(4-morpholinopiperidin-1-yl)phenyl)amino)-7H-pyrrolo[2,3-d]pyrimidine-4-yl)amino)phenyl)-N-methylmethanesulfonamide] |
|  | 6 | CN1CCN(c2ccc(Nc3nc(Nc4ccccc4N(C)S(C)(=O)=O)c4cc[nH]c4n3)c(F)c2F)CC1 [Example 27, N-(2-((2-((2,3-difluoro-4-(4-methylpiperazin-1-yl)phenyl)amino)-7H-pyrrolo[2,3-d]pyrimidine-4-yl)amino)phenyl)-N-methylmethanesulfonamide] |
|  | 7 | CN(c1ccccc1Nc1nc(Nc2ccc(N3CCN(CCO)CC3)c(F)c2F)nc2[nH]ccc12)S(C)(=O)=O [Example 28, N-(2-((2-((2,3-difluoro-4-(4-(2-hydroxyethyl)piperazin-1-yl)phenyl)amino)-7H-pyrrolo[2,3-d]pyrimidine-4-yl)amino)phenyl)-N-methylmethanesulfonamide] |
|  | 16 | CCS(=O)(=O)N(C)c1ccccc1Nc1nc(Nc2ccc(N3CCN(C)CC3)c(F)c2)nc2[nH]ccc12 [Example 46, N-(2-((2-((3-fluoro-4-(4-methylpiperazin-1-yl)phenyl)amino)-7H-pyrrolo[2,3-d]pyrimidine-4-yl)amino)phenyl)-N-methylethanesulfonamide] |
|  | 26 | CCN1CCN(c2ccc(Nc3nc(Nc4ccccc4N(CC)S(C)(=O)=O)c4cc[nH]c4n3)cc2F)CC1 [Example 50, N-ethyl-N-(2-((2-((4-(4-ethylpiperazin-1-yl)-3-fluorophenyl)amino)-7H-pyrrolo[2,3-d]pyrimidine-4-yl)amino)phenyl)methanesulfonamide] |
|  | 41 | CN1CCN(c2ccc(Nc3nc(Nc4ccccc4N(C)S(C)(=O)=O)c4c(Cl)c[nH]c4n3)cn2)CC1 [Example 59, N-(2-((5-chloro-2-((6-(4-methylpiperazin-1-yl)pyridin-3-yl)amino)-7H-pyrrolo[2,3-d]pyrimidine-4-yl)amino)phenyl)-N-methylmethanesulfonamide] |
|  | 141 | CN1C[C@@H]2CN(c3ccc(Nc4nc(Nc5ccccc5N(C)S(C)(=O)=O)c5cc[nH]c5n4)cc3F)C[C@@H]2C1 [Example 41, N-(2-((2-((3-fluoro-4-((3aR,6aS)-5-methylhexahydropyrrolo[3,4-c]pyrrole-2(1H)-yl)phenyl)amino)-7H-pyrrolo[2,3-d]pyrimidine-4-yl)amino)phenyl)-N-methylmethanesulfonamide] |
|  | 46 | CN1CCN(c2ccc(Nc3nc(Nc4ccccc4N(C)S(C)(=O)=O)c4c(F)c[nH]c4n3)cc2F)CC1 [Example 62, N-(2-((5-fluoro-2-((3-fluoro-4-(4-methylpiperazin-1-yl)phenyl)amino)-7H-pyrrolo[2,3-d]pyrimidine-4-yl)amino)phenyl)-N-methylmethanesulfonamide] |
|  | 64 | CCN1CCN(c2ccc(Nc3nc(Nc4ccccc4N(C)S(C)(=O)=O)c4c(F)c[nH]c4n3)cc2F)CC1 [Example 63, N-(2-((2-((4-(4-ethylpiperazin-1-yl)-3-fluorophenyl)amino)-5-fluoro-7H-pyrrolo[2,3-d]pyrimidine-4-yl)amino)phenyl)-N-methylmethanesulfonamide] |
|  | 67 | CN(c1ccccc1Nc1nc(Nc2ccc(N3CCC4(CCOCC4)CC3)c(F)c2)nc2[nH]ccc12)S(C)(=O)=O [Example 39, N-(2-((2-((3-fluoro-4-(3-oxa-9-diazaspiro[5.5]undecan-9-yl)phenyl)amino)-7H-pyrrolo[2,3-d]pyrimidine-4-yl)amino)phenyl)-N-methylmethanesulfonamide] |
|  | 54 | CN1CCN(c2ccc(Nc3nc(Nc4ccccc4N(C)S(C)(=O)=O)c4cc[nH]c4n3)cc2Cl)CC1 [Example 6, N-(2-((2-((3-chloro-4-(4-methylpiperazin-1-yl)phenyl)amino)-7H-pyrrolo[2,3-d]pyrimidine-4-yl)amino)phenyl)-N-methylmethanesulfonamide] |
|  | 17 | CN(C)C1CCN(c2ccc(Nc3nc(Nc4ccccc4N(C)S(C)(=O)=O)c4cc[nH]c4n3)cc2F)CC1 [Example 21, N-(2-((2-((4-(4-(dimethylamino)piperidin-1-yl)-3-fluorophenyl)amino)-7H-pyrrolo[2,3-d]pyrimidine-4-yl)amino)phenyl)-N-methylmethanesulfonamide] |
|  | 25 | CN1CCC2(C1)CN(c1ccc(Nc3nc(Nc4ccccc4N(C)S(C)(=O)=O)c4cc[nH]c4n3)cc1F)C2 [Example 38, N-(2-((2-((3-fluoro-4-(6-methyl-2,6-diazaspiro[3.4]octan-2-yl)phenyl)amino)-7H-pyrrolo[2,3-d]pyrimidine-4-yl)amino)phenyl)-N-methylmethanesulfonamide] |
